{"source": "patent US20190208766A1", "about": "“COMPOSITION FOR THE CONSERVATION/FIXATION OF BIOLOGICAL MATERIAL” (priority 2016, published 2019)", "origin": "cited, not measured here", "tested_on": "airways", "conditions": "in vivo"}
{"smiles": "C=O", "note": "[formaldehyde]", "values": [{"measurement": "concentration causing sense of suffocation", "value": "greater than 10 ppm"}, {"measurement": "exposure that can lead to pulmonary edema", "value": "greater than 20 ppm"}]}
